Source: ChEMBL document CHEMBL1123971, “Synthesis, platelet aggregation inhibitory activity, and in vivo antithrombotic activity of new 1,4-dihydropyridines” (J Med Chem, 1988)

Assays:
[1] = system: Felis catus; test: Effect of intraperitoneal infusion on systolic pressure in Anesthetized cats at a dose of 200 mg/kg at 90 min; format: functional
[2] = system: Felis catus; test: Effect of intravenous infusion on systolic pressure in Anesthetized cats at a dose of 0 mg/kg at 0 min; format: functional
[3] = organism: Oryctolagus cuniculus; test: Effect on 35 mM K+-induced contraction on rabbit aorta at a dose of 3*10e-9 mol/L; format: functional
[4] = system: Felis catus; test: Effect of intravenous infusion on cardiac frequency in Anesthetized cats at a dose of 0.00 mg/kg at 0 min; format: functional, Heart
[5] = system: Felis catus; test: Effect of intraperitoneal infusion on respiration frequency in Anesthetized cats at a dose of 200 mg/kg at 135 min; format: functional
[6] = system: Felis catus; test: Effect of intravenous infusion on respiration frequency in Anesthetized cats at a dose of 0.30 mg/kg at 2 min; format: functional; conditions: dose 0.3 mg/kg
[7] = system: Felis catus; test: Effect of intravenous infusion on diastolic pressure in Anesthetized cats at a dose of 2.25 mg/kg at 15 min; format: functional
[8] = system: Felis catus; test: Effect of intraperitoneal infusion on systolic pressure in Anesthetized cats at a dose of 200 mg/kg at 150 min; format: functional
[9] = organism: Oryctolagus cuniculus; test: Effect on 35 mM K+-induced contraction on rabbit aorta at a dose of 3*10e-6 mol/L; format: functional
[10] = organism: Oryctolagus cuniculus; test: Effect on 35 mM K+-induced contraction on rabbit aorta at a dose of 10E-8 mol/L; format: functional
[11] = system: Felis catus; test: Effect of intraperitoneal infusion of compound on cardiac frequency in Anesthetized cats at a dose of 200 mg/kg at 135 min; format: functional, Heart
[12] = organism: Oryctolagus cuniculus; test: Effect on 35 mM K+-induced contraction on rabbit aorta at a dose of 10E-9 mol/L; format: functional
[13] = system: Felis catus; test: Effect of intravenous infusion on diastolic pressure in Anesthetized cats at a dose of 0.15 mg/kg at 1 min; format: functional
[14] = system: Felis catus; test: Effect of intraperitoneal infusion on diastolic pressure in Anesthetized cats at a dose of 200 mg/kg at 0 min; format: functional
[15] = organism: Oryctolagus cuniculus; test: Effect on 35 mM K+-induced contraction on rabbit aorta at a dose of 10E-6 mol/L; format: functional
[16] = system: Felis catus; test: Effect of intraperitoneal infusion on systolic pressure in Anesthetized cats at a dose of 200 mg/kg at 60 min; format: functional
[17] = organism: Cavia porcellus; test: Chronotropic activity on left and right guinea pig artia (beats/min), at 60 min; format: functional
[18] = system: Felis catus; test: Effect of intravenous infusion on systolic pressure in Anesthetized cats at a dose of 0.75 mg/kg at 5 min; format: functional
[19] = system: Felis catus; test: Effect of intraperitoneal infusion on respiration frequency in Anesthetized cats at a dose of 200 mg/kg at 0 min; format: functional
[20] = system: Felis catus; test: Effect of intravenous infusion on diastolic pressure in Anesthetized cats at a dose of 3.0 mg/kg at 20 min; format: functional
[21] = organism: Cavia porcellus; test: Effect on guinea pig artia (beats/min), at the a dose of 10e-9 M; format: functional
[22] = system: Felis catus; test: Effect of intravenous infusion on diastolic pressure in Anesthetized cats at a dose of 0.30 mg/kg at 2 min; format: functional; conditions: dose 0.3 mg/kg
[23] = system: Felis catus; test: Effect of intraperitoneal infusion on systolic pressure in Anesthetized cats at a dose of 200 mg/kg at 0 min; format: functional
[24] = system: Felis catus; test: Effect of intravenous infusion on cardiac frequency in Anesthetized cats at a dose of 0.75 mg/kg at 5 min; format: functional, Heart
[25] = system: Felis catus; test: Effect of intraperitoneal infusion of compound on cardiac frequency in Anesthetized cats at a dose of 200 mg/kg at 30 min; format: functional, Heart
[26] = organism: Cavia porcellus; test: Chronotropic activity on left and right guinea pig artia (beats/min), at 180 min; format: functional
[27] = system: Felis catus; test: Effect of intravenous infusion on respiration frequency in Anesthetized cats at a dose of 0.15 mg/kg at 1 min; format: functional
[28] = system: Felis catus; test: Effect of intravenous infusion on systolic pressure in Anesthetized cats at a dose of 1.50 mg/kg at 10 min; format: functional; conditions: dose 1.5 mg/kg
[29] = system: Felis catus; test: Effect of intraperitoneal infusion on systolic pressure in Anesthetized cats at a dose of 200 mg/kg at 120 min; format: functional
[30] = system: Felis catus; test: Effect of intraperitoneal infusion on systolic pressure in Anesthetized cats at a dose of 200 mg/kg at 165 min; format: functional
[31] = system: Felis catus; test: Effect of intraperitoneal infusion on systolic pressure in Anesthetized cats at a dose of 200 mg/kg at 45 min; format: functional
[32] = system: Felis catus; test: Effect of intraperitoneal infusion on systolic pressure in Anesthetized cats at a dose of 200 mg/kg at 75 min; format: functional
[33] = system: Felis catus; test: Effect of intraperitoneal infusion of compound on cardiac frequency in Anesthetized cats at a dose of 200 mg/kg at 45 min; format: functional, Heart
[34] = system: Felis catus; test: Effect of intraperitoneal infusion of compound on cardiac frequency in Anesthetized cats at a dose of 200 mg/kg at 150 min; format: functional, Heart
[35] = system: Felis catus; test: Effect of intraperitoneal infusion on diastolic pressure in Anesthetized cats at a dose of 200 mg/kg at 165 min; format: functional
[36] = system: Felis catus; test: Effect of intraperitoneal infusion on diastolic pressure in Anesthetized cats at a dose of 200 mg/kg at 90 min; format: functional
[37] = system: Felis catus; test: Effect of intravenous infusion on cardiac frequency in Anesthetized cats at a dose of 0.15 mg/kg at 1 min; format: functional, Heart
[38] = system: Felis catus; test: Effect of intraperitoneal infusion of compound on cardiac frequency in Anesthetized cats at a dose of 200 mg/kg at 15 min; format: functional, Heart
[39] = system: Felis catus; test: Effect of intraperitoneal infusion on diastolic pressure in Anesthetized cats at a dose of 200 mg/kg at 45 min; format: functional
[40] = organism: Cavia porcellus; test: Effect on guinea pig artia (beats/min), at the a dose of 10e-8 M; format: functional
[41] = system: Felis catus; test: Effect of intravenous infusion on respiration frequency in Anesthetized cats at a dose of 0 mg/kg at 0 min; format: functional
[42] = system: Felis catus; test: Effect of intravenous infusion on diastolic pressure in Anesthetized cats at a dose of 0.75 mg/kg at 5 min; format: functional
[43] = organism: Cavia porcellus; test: Chronotropic activity on left and right guinea pig artia (beats/min), at 0 min; format: functional
[44] = system: Felis catus; test: Effect of intraperitoneal infusion on systolic pressure in Anesthetized cats at a dose of 200 mg/kg at 30 min; format: functional
[45] = system: Felis catus; test: Effect of intravenous infusion on cardiac frequency in Anesthetized cats at a dose of 0.30 mg/kg at 2 min; format: functional, Heart; conditions: dose 0.3 mg/kg
[46] = system: Felis catus; test: Effect of intravenous infusion on respiration frequency in Anesthetized cats at a dose of 0.75 mg/kg at 5 min; format: functional
[47] = organism: Cavia porcellus; test: Chronotropic activity on left and right guinea pig artia (beats/min), at 120 min; format: functional
[48] = system: Felis catus; test: Effect of intravenous infusion on systolic pressure in Anesthetized cats at a dose of 0.30 mg/kg at 2 min; format: functional; conditions: dose 0.3 mg/kg

CCO/C(O)=C1\C(C)=NC(C)=C(C(=O)OCCN2C(=O)c3ccccc3S2(=O)=O)C1C (centres undefined)
Arterial pressure [1]: 138 mmHg
Arterial pressure [2]: 165 mmHg
Inhibition [3]: 0%
Cardiac frequency [4]: 190 beats min-1
Respiratory frequency [5]: 15 r.p.m.
Respiratory frequency [6]: 18 r.p.m.
Arterial pressure [7]: 110 mmHg
Arterial pressure [8]: 140 mmHg
Inhibition [9]: 71.3%
Inhibition [10]: 0%
Cardiac frequency [11]: 271 beats min-1
Inhibition [12]: 0%
Arterial pressure [13]: 115 mmHg
Arterial pressure [14]: 85 mmHg
Inhibition [15]: 48.13%
Arterial pressure [16]: 130 mmHg
Beats/min [17]: 136
Control [17]: 99.3%
Arterial pressure [18]: 162 mmHg
Respiratory frequency [19]: 14 r.p.m.
Arterial pressure [20]: 160 mmHg
Beats/min [21]: 193
Control [21]: 105.6%
Arterial pressure [22]: 115 mmHg
Arterial pressure [23]: 130 mmHg
Cardiac frequency [24]: 195 beats min-1
Cardiac frequency [25]: 245 beats min-1
Beats/min [26]: 130
Control [26]: 94.9%
Respiratory frequency [27]: 18 r.p.m.
Arterial pressure [28]: 160 mmHg
Arterial pressure [29]: 145 mmHg
Arterial pressure [30]: 142 mmHg
Arterial pressure [31]: 125 mmHg
Arterial pressure [32]: 137 mmHg
Cardiac frequency [33]: 245 beats min-1
Cardiac frequency [34]: 265 beats min-1
Arterial pressure [35]: 80 mmHg
Arterial pressure [36]: 85 mmHg
Cardiac frequency [37]: 190 beats min-1
Cardiac frequency [38]: 254 beats min-1
Arterial pressure [39]: 85 mmHg
Beats/min [40]: 176
Control [40]: 96.3%
Respiratory frequency [41]: 18 r.p.m.
Arterial pressure [42]: 112 mmHg
Beats/min [43]: 137
Control [43]: 100%
Arterial pressure [44]: 135 mmHg
Cardiac frequency [45]: 190 beats min-1
Respiratory frequency [46]: 19 r.p.m.
Beats/min [47]: 131
Control [47]: 95.6%
Arterial pressure [48]: 165 mmHg
